Assay [1] has as its system Sca-1^+/lin^−/CD45^− murine bone marrow VSELs. The assay can be described thus: Ex vivo expansion of murine VSELs. It counts as cell-based. Particulars: 1 mM VPA with 10 U/ml LH and 10 U/ml FSH in D-MEM, 5% FBS; feeder-free; at 2 months. On the procedure: Murine VSELs were isolated by multi-parameter sorting using a MOFLOW™ XDP sorter (Beckman Coulter, Inc., Indianapolis, Indiana, United States of America). Highly purified Sca-1^+/lin^−/CD45^− murine bone marrow VSELs were cultured in D-MEM culture medium containing 5% fetal bovine serum (FBS) supplemented with 10 U/ml luteinizing hormone (LH) and 10 U/ml follicle-stimulating hormone (FSH) in a humidified incubator maintained at 37° C. with 5% CO2. VSELs were exposed to the HDAC inhibitor valproic acid (VPA; Sigma Aldrich, St. Louis, Missouri, United States of America) at a concentration of 1 mM. The cultures were supplemented with fresh LH and FSH every third day. The cultures were maintained for approximately two (2) months.

In assay [2] the test system is Human UCB-derived VSELs (CD133^+/lin^−/CD45^− cells). Nature of the assay: Ex vivo expansion of human UCB-derived VSELs. It counts as cell-based. The note with it: VPA (1 mM), LH (10 U/ml), FSH (10 U/ml), TGFβ (10 ng/ml) in D-MEM, 10% FBS; at 2 months. On the procedure:
Human UCB-derived VSELs were isolated by multi-parameter sorting using a MOFLOW™ XDP sorter (Beckman Coulter, Inc.). Small CD133^+/lin^−/CD45^− cells were plated in 96 well plates in D-MEM medium supplemented with 10% FBS in the presence of VPA (1 mM), LH (10 U/ml), FSH (10 U/ml) and transforming growth factor beta (TGFβ; 10 ng/ml). Cells were cultured for two (2) months in a humidified incubator at 37° C., 5% CO2. Fresh medium was added every 7 days.

As to `CCCC(CCC)C(=O)O` [VPA, valproic acid], the “average expansion of sorted purified murine VSELs as compared to day 0” value in assay [1] came to 21±3 fold. Further, the “average expansion of sorted purified human VSELs as compared to day 0” value in assay [2] amounted to 32±5 fold.

(Values after patent US12116592B2, “Methods and compositions for ex vivo expansion of very small embryonic-like stem cells (VSELs)” (University of Louisville Research Foundation, Inc., priority 2016, dated 2024).)
